Laboratory results published in patent US7759345B2, “Antitumoral derivatives of ET-743” (priority 2001, dated 2010).

Assays:
[1] = system: LoVo-Dox; assay: Inhibition of cells growth by colorimetric assay (SRB), LoVo-Dox; format: cell-based; conditions: for GI50 / CC50: Homo sapiens, 48 h; for GI50 / LOVO-DOX TGI: SRB assay, 48 hours exposure; for GI50: read-out: LOVO-DOX GI50; for CC50: read-out: LOVO-DOX LC50, SRB assay, 48 hours exposure
In short: (§1)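 SRB read-out at 490 nm after 48 h drug exposure (10 to 10^−8 μg/ml) of cells plated at 5×10^3/well and attached 18 h in drug-free RPMI 1640/10% FBS. Triplicate means give GI, TGI (cytostatic) and LC (cytotoxic).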

[2] = system: Heart
From the text: (§2) Toxicity was asssessed by the methods reported in Toxicology in Vitro, 15 (2001) 571-577, J. Luber Narod et al.: “Evaluation of the use of in vitro methodolodies as tools for screening new compounds for potential in vivo toxicity”.

[3] = system: SK-BR-3; assay: Inhibition of cells growth by colorimetric assay (SRB), SK-BR-3; format: cell-based; conditions: for GI50 / CC50: Homo sapiens, SK-BR-3, 48 h; for GI50 / SK-BR3 TGI: SRB assay, 48 hours exposure; for GI50: read-out: SK-BR3 GI50; for CC50: read-out: SK-BR3 LC50, SRB assay, 48 hours exposure
In short: as §1

[4] = system: Myelo
From the text: as §2

[5] = system: DU-145; assay: Inhibition of cells growth by colorimetric assay (SRB), DU-145; format: cell-based; conditions: for GI50 / CC50: Homo sapiens, DU-145, 48 h; for GI50 / DU-145 TGI: SRB assay, 48 hours exposure; for GI50: read-out: DU-145 GI50; for CC50: read-out: DU-145 LC50, SRB assay, 48 hours exposure
In short: as §1

[6] = system: PANC-1; assay: Inhibition of cells growth by colorimetric assay (SRB), PANC-1; format: cell-based; conditions: for GI50 / LC50 (concentration for 50% net cell kill): Homo sapiens, PANC-1, 48 h; for GI50 / PANC-1 TGI: SRB assay, 48 hours exposure; for GI50: read-out: PANC-1 GI50; for LC50 (concentration for 50% net cell kill): read-out: PANC-1 LC50, SRB assay, 48 hours exposure
In short: as §1

[7] = system: HMEC1; assay: Inhibition of cells growth by colorimetric assay (SRB), HMEC1; format: cell-based; conditions: for GI50 / LC50: Homo sapiens, HMEC-1, 48 h; for GI50 / HMEC-1 TGI: SRB assay, 48 hours exposure; for GI50: read-out: HMEC-1 GI50; for LC50: read-out: HMEC-1 LC50, SRB assay, 48 hours exposure
In short: as §1

[8] = system: IGROV-ET; assay: Inhibition of cells growth by colorimetric assay (SRB), IGROV-ET; format: cell-based; conditions: for GI50 / CC50: Homo sapiens, 48 h; for GI50 / IGROV-ET TGI: SRB assay, 48 hours exposure; for GI50: read-out: IGROV-ET GI50; for CC50: read-out: IGROV-ET LC50, SRB assay, 48 hours exposure
In short: as §1

[9] = system: SK-MEL-28; assay: Inhibition of cells growth by colorimetric assay (SRB), SK-MEL-28; format: cell-based; conditions: for GI50 / CC50: Homo sapiens, SK-MEL-28, 48 h; for GI50 / MEL-28 TGI: SRB assay, 48 hours exposure; for GI50: read-out: MEL-28 GI50; for CC50: read-out: MEL-28 LC50, SRB assay, 48 hours exposure
In short: as §1

[10] = system: Skeletal
From the text: as §2

[11] = system: Kidney
From the text: as §2

[12] = system: K-562; assay: Inhibition of cells growth by colorimetric assay (SRB), K-562; format: cell-based; conditions: for GI50 / LC50 (50% cell killing): Homo sapiens, K562, 48 h; for GI50 / K-562 TGI: SRB assay, 48 hours exposure; for GI50: read-out: K-562 GI50; for LC50 (50% cell killing): read-out: K-562 LC50, SRB assay, 48 hours exposure
In short: as §1

[13] = system: IGROV-1; assay: Inhibition of cells growth by colorimetric assay (SRB), IGROV-1; format: cell-based; conditions: for GI50 / CC50: Homo sapiens, IGROV-1, 48 h; for GI50 / IGROV TGI: SRB assay, 48 hours exposure; for GI50: read-out: IGROV GI50; for CC50: read-out: IGROV LC50, SRB assay, 48 hours exposure
In short: as §1

[14] = system: SK-OV-3; assay: Inhibition of cells growth by colorimetric assay (SRB), SK-OV-3; format: cell-based; conditions: for GI50 / LC50: Homo sapiens, SK-OV-3, 48 h; for GI50 / SK-OV3 TGI: SRB assay, 48 hours exposure; for GI50: read-out: SK-OV3 GI50; for LC50: read-out: SK-OV3 LC50, SRB assay, 48 hours exposure
In short: as §1

[15] = system: LoVo; assay: Inhibition of cells growth by colorimetric assay (SRB), LoVo; format: cell-based; conditions: for GI50 / LC50 (concentration for 50% cell killing): Homo sapiens, LoVo, 48 h; for GI50 / LOVO TGI: SRB assay, 48 hours exposure; for GI50: read-out: LOVO GI50; for LC50 (concentration for 50% cell killing): read-out: LOVO LC50, SRB assay, 48 hours exposure
In short: as §1

[16] = system: HT-29; assay: Inhibition of cells growth by colorimetric assay (SRB), HT-29; format: cell-based; conditions: for GI50 / LC50 (concentration for 50% cell killing): Homo sapiens, HT-29, 48 h; for GI50 / HT-29 TGI: SRB assay, 48 hours exposure; for GI50: read-out: HT-29 GI50; for LC50 (concentration for 50% cell killing): read-out: HT-29 LC50, SRB assay, 48 hours exposure
In short: as §1

[17] = system: A-549; assay: Inhibition of cells growth by colorimetric assay (SRB), A-549; format: cell-based; conditions: for GI50 / LC50 (concentration for 50% cell killing): Homo sapiens, A549, 48 h; for GI50 / A-549 TGI: SRB assay, 48 hours exposure; for GI50: read-out: A-549 GI50; for LC50 (concentration for 50% cell killing): read-out: A-549 LC50, SRB assay, 48 hours exposure
In short: as §1

[18] = system: Liver
From the text: as §2

[19] = system: LNCaP; assay: Inhibition of cells growth by colorimetric assay (SRB), LNCaP; format: cell-based; conditions: for GI50 / CC50: Homo sapiens, LNCaP, 48 h; for GI50: read-out: LNCAP GI50, SRB assay, 48 hours exposure; for CC50: read-out: LNCAP LC50, SRB assay, 48 hours exposure; for LNCAP TGI: SRB assay, 48 hours exposure
In short: as §1

## COc1cc2c(cc1O)CCN[C@]21CS[C@@H]2c3c(OC(=O)CCCCC4SCC5NC(=O)NC54)c(C)c4c(c3[C@H](COC1=O)N1C2[C@H]2c3c(cc(C)c(OC)c3OC(=O)CCCCC3SCC5NC(=O)NC53)C[C@@H]([C@@H]1O)N2C)OCO4 (stereo partly drawn) [Compound 172]
[1]
  GI50: 2880 nM
  CC50: 8.53 µM
  LOVO-DOX TGI: 7.23E-06
[2]
  Toxicity Data Heart: 7.52E-07
[3]
  GI50: 50.2 nM
  CC50: 785 nM
  SK-BR3 TGI: 2.00E-07
[4]
  Toxicity Data Myelo: 3.81E-07
[5]
  GI50: 37.9 nM
  CC50: 8.53 µM
  DU-145 TGI: 8.31E-08
[6]
  GI50: 326 nM
  LC50 (concentration for 50% net cell kill): 8.53 µM
  PANC-1 TGI: 8.34E-07
[7]
  GI50: 432 nM
  LC50: 8.53 µM
  HMEC-1 TGI: 8.53E-06
[8]
  GI50: 165 nM
  CC50: 853 nM
  IGROV-ET TGI: 4.18E-07
[9]
  GI50: 1.31 nM
  CC50: 7.97 nM
  MEL-28 TGI: 3.22E-09
[10]
  Toxicity Data Skeletal: 8.53E-07
[11]
  Toxicity Data Kidney: 7.93E-07
[12]
  GI50: 6.03 nM
  LC50 (50% cell killing): 35.3 nM
  K-562 TGI: 9.98E-09
[13]
  GI50: 14.2 nM
  CC50: 63.6 nM
  IGROV TGI: 3.01E-08
[14]
  GI50: 219 nM
  LC50: 853 nM
  SK-OV3 TGI: 5.09E-07
[15]
  GI50: 226 nM
  LC50 (concentration for 50% cell killing): 853 nM
  LOVO TGI: 4.61E-07
[16]
  GI50: 38.8 nM
  LC50 (concentration for 50% cell killing): 8.53 µM
  HT-29 TGI: 1.43E-07
[17]
  GI50: 241 nM
  LC50 (concentration for 50% cell killing): 853 nM
  A-549 TGI: 4.59E-07
[18]
  Toxicity Data Liver: 2.47E-07
[19]
  GI50: 27.7 nM
  CC50: 66.8 nM
  LNCAP TGI: 4.31E-08

## COc1cc2c(cc1OC(=O)OC(C)(C)C)CCN[C@]21CS[C@@H]2c3c(OC(=O)[C@H](C)NC(=O)OC(C)(C)C)c(C)c4c(c3[C@H](COC1=O)N1C2[C@H]2c3c(cc(C)c(OC)c3O)C[C@@H]([C@@H]1O)N2C)OCO4 (stereo partly drawn) [Compound 175]
[1]
  GI50: 43.3 nM
  CC50: 10.1 µM
  LOVO-DOX TGI: 1.55E-07
[2]
  Toxicity Data Heart: 2.82E-09
[3]
  GI50: 1.31 nM
  CC50: 13.2 nM
  SK-BR3 TGI: 3.78E-09
[4]
  Toxicity Data Myelo: 1.59E-08
[5]
  GI50: 3.67 nM
  CC50: 10.1 µM
  DU-145 TGI: 9.20E-09
[6]
  GI50: 4.38 nM
  LC50 (concentration for 50% net cell kill): 10.1 µM
  PANC-1 TGI: 1.33E-08
[7]
  GI50: 3.54 nM
  LC50: 10.1 µM
  HMEC-1 TGI: 1.29E-08
[8]
  GI50: 3.97 nM
  CC50: 1720 nM
  IGROV-ET TGI: 9.56E-09
[9]
  GI50: 3.28 nM
  CC50: 25.2 nM
  MEL-28 TGI: 6.63E-09
[10]
  Toxicity Data Skeletal: 2.12E-07
[11]
  Toxicity Data Kidney: 2.84E-09
[12]
  GI50: 0.293 nM
  LC50 (50% cell killing): 0.775 nM
  K-562 TGI: 4.76E-10
[13]
  GI50: 0.641 nM
  CC50: 8.13 nM
  IGROV TGI: 2.37E-09
[14]
  GI50: 3.56 nM
  LC50: 10100 nM
  SK-OV3 TGI: 8.77E-09
[15]
  GI50: 2.3 nM
  LC50 (concentration for 50% cell killing): 8.33 nM
  LOVO TGI: 4.38E-09
[16]
  GI50: 4.15 nM
  LC50 (concentration for 50% cell killing): 10.1 µM
  HT-29 TGI: 1.54E-08
[17]
  GI50: 2.25 nM
  LC50 (concentration for 50% cell killing): 7.97 nM
  A-549 TGI: 4.24E-09
[18]
  Toxicity Data Liver: 3.87E-09
[19]
  GI50: 0.382 nM
  CC50: 3.64 nM
  LNCAP TGI: 1.12E-09

## C=COC(=O)Oc1c(C)c2c(c3c1[C@H]1SC[C@]4(NCCc5cc(OC(=O)OC(C)(C)C)c(OC)cc54)C(=O)OC[C@@H]3N3C1[C@H]1c4c(cc(C)c(OC)c4O)C[C@@H]([C@@H]3O)N1C)OCO2 (stereo partly drawn) [Compound 176]
[1]
  GI50: 47.3 nM
  CC50: 11.2 µM
  LOVO-DOX TGI: 1.15E-06
[2]
  Toxicity Data Heart: 1.98E-08
[3]
  GI50: 2.7 nM
  CC50: 40.6 nM
  SK-BR3 TGI: 7.73E-09
[4]
  Toxicity Data Myelo: 1.42E-08
[5]
  GI50: 5.24 nM
  CC50: 8.36 µM
  DU-145 TGI: 1.10E-08
[6]
  GI50: 5.31 nM
  LC50 (concentration for 50% net cell kill): 3.2 µM
  PANC-1 TGI: 1.97E-08
[7]
  GI50: 3.46 nM
  LC50: 11.2 µM
  HMEC-1 TGI: 1.48E-07
[8]
  GI50: 4.88 nM
  CC50: 3450 nM
  IGROV-ET TGI: 3.38E-08
[9]
  GI50: 25.8 nM
  CC50: 95.6 nM
  MEL-28 TGI: 4.97E-08
[10]
  Toxicity Data Skeletal: 2.41E-08
[11]
  Toxicity Data Kidney: 2.80E-09
[12]
  GI50: 0.737 nM
  LC50 (50% cell killing): 6.89 nM
  K-562 TGI: 1.52E-09
[13]
  GI50: 1.74 nM
  CC50: 10.7 nM
  IGROV TGI: 4.30E-09
[14]
  GI50: 3.26 nM
  LC50: 11 nM
  SK-OV3 TGI: 8.07E-09
[15]
  GI50: 11.1 nM
  LC50 (concentration for 50% cell killing): 112 nM
  LOVO TGI: 5.12E-08
[16]
  GI50: 3.83 nM
  LC50 (concentration for 50% cell killing): 11.2 µM
  HT-29 TGI: 7.96E-09
[17]
  GI50: 2.75 nM
  LC50 (concentration for 50% cell killing): 11.2 nM
  A-549 TGI: 6.01E-09
[18]
  Toxicity Data Liver: 2.95E-08
[19]
  GI50: 1.62 nM
  CC50: 6.49 nM
  LNCAP TGI: 3.25E-09
